{
  "source": "patent US6720346B2",
  "about": "“Thiazole benzamide derivatives and pharmaceutical compositions for inhibiting cell proliferation” (Agouron Pharmaceuticals, Inc., priority 2001, dated 2004)",
  "format_in_all_cases": "biochemical",
  "key": {"[1]": {"biological_target": "T1, CDK2/cyclin A (Homo sapiens, UniProt P24941)", "T1 construct": "made in house; host or cells: CDK2: insect cells (baculovirus); cyclin A: E. coli", "test": "Inhibition of CDK2/cyclin A retinoblastoma kinase activity (Ki; % inhibition)", "conditions": "apparent Ki, CDK2/cyclin A, Rb substrate", "procedure,_shortened": "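Radiometric filter assay of CDK2/proteolyzed cyclin A (baculovirus-expressed human CDK2, 10 or 19 nM) phosphorylating an Rb fragment with 25 μM [³²P/³³P]ATP in pH 7.4 HEPES, 2% DMSO, at 30 °C for 60 or 75 min under initial-rate conditions. Library compounds screened at 30 nM for % inhibition; apparent Ki from concentration series fit to competitive or tight-binding inhibition equations.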"}, "[2]": {"biological_target": "T2, Phosphorylated FGF receptor kinase (FGFR1 cytosolic domain) (Homo sapiens, UniProt P11362, C488A/C584S/L457V)", "T2 construct": "FGFR1 tyrosine kinase (amino acids 456-766); made in house; host or cells: Sf9 insect cells (baculovirus)", "T2 sequence (P11362 456-766 L457V/C488A/C584S)": "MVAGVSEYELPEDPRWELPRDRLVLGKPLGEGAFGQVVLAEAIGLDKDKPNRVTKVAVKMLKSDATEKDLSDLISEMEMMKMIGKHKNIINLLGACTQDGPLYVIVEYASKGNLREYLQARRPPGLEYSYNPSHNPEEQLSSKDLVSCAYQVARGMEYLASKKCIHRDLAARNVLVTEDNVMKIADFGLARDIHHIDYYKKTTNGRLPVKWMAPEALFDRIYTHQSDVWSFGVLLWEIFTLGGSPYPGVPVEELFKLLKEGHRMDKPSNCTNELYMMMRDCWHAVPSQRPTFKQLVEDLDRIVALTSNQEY", "test": "Inhibition of phosphorylated FGF receptor tyrosine kinase activity (coupled spectrophotometric assay)", "conditions": "read-out: P-FGF % Inhibition at 1 μM", "method": "Cloning, expression and purification of the cytosolic domain of FGFR1 tyrosine kinase (amino acids 456-766) containing three amino acid substitutions (L457V, C488A, and C584S) were conducted as previously described (Mohammadi, M., Schiessinger, J., & Hubbard, S. R. Cell, 86, (1996) 577-587). This domain was expressed in Sf9 insect cells using a baculovirus expression vector, and protein was purified using conventional techniques. The LCK tyrosine kinase was expressed in insect cells as an N-terminal deletion starting from amino acid 223 to the end of the protein at amino acid 509. The N-terminus of the protein also had two amino acid substitutions, P223M and C224D. Kinases were purified using conventional chromatographic methods.\nTyrosine kinase activity was measured using a coupled, continuous spectrophotometric assay, in which production of phosphorylated poly(Glu,Tyr; 4:1) substrate and ADP is coupled to the pyruvate kinase-catalyzed transfer of a phosphate from phosphoenolpyruvate to ADP, with generation of pyruvate and regeneration of ATP. Pyruvate production is in turn coupled to the lactate dehydrogenase-catalyzed reduction of pyruvate to form lactate, with concomitant conversion of NADH to NAD^+. Loss of NADH is monitored by measuring absorbance at 340 nm (see e.g., Technikova-Dobrova et al., “Spectrophotometric Determination of Functional Characteristics of Protein Kinases with Coupled Enzymatic Assay,” FEBS Letters, 292 (1991), pp. 69-72). Enzyme activity was measured in the presence of 200 mM HEPES (pH 7.5), 2 mM phosphoenolpyruvate, 0.3 mM NADH, 20 mM MgCl2, 100 μM ATP, 5 mM DTT, 5.1 or 25 mM poly (Glu,Tyr) 4:1 for P-FGF or P-LCK assays, respectively, and 15 units/mL each of pyruvate kinase and lactate dehydrogenase. Phosphorylated FGF receptor kinase was present at 100 nM and phosphorylated LCK kinase was present at 50 nM. Assays were performed under initial rate conditions at 37° C., and rates were corrected for any background rate measured in the absence of enzyme. Percent inhibition was calculated relative to control enzyme assayed in the presence of 2% (v/v) DMSO."}, "[3]": {"biological_target": "T3, human CDK4/cyclin D3 (Homo sapiens, UniProt P11802)", "T3 construct": "made in house; host or cells: insect cells co-infected with baculovirus vectors", "T3 sequence (P11802 whole entry, the tested form may be a part)": "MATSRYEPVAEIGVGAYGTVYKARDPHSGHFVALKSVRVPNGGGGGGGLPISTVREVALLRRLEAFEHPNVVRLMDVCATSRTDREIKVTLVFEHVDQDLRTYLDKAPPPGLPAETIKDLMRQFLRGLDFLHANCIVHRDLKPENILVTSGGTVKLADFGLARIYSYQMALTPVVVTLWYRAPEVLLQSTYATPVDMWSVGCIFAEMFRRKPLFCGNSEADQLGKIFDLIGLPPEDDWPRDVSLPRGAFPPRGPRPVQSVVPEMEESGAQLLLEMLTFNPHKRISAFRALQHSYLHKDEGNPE", "T3 sequence (P30281 1-264 partner limits assumed)": "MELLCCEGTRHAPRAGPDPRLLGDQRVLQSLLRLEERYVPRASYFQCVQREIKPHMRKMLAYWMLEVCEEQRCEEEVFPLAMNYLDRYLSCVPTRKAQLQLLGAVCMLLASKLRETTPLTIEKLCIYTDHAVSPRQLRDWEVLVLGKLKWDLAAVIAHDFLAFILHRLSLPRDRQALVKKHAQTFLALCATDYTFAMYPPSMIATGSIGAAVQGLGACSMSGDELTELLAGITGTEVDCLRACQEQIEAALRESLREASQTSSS", "test": "Inhibition of CDK4/cyclin D retinoblastoma kinase activity (Ki; % inhibition)", "conditions": "apparent Ki, CDK4/cyclin D3, Rb substrate", "procedure,_shortened": "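Insect-cell-expressed CDK4 with truncated cyclin D3 (1-264), 5 nM, phosphorylating His-tagged Rb fragment (386-928) with 25 μM [32/33P]ATP at pH 7.4, 30 °C, 20 min (60 min for tight binders). Filter capture, phosphorimager read; % inhibition at 30 nM compound, Ki from competitive or tight-binding fits.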"}},
  "note": "Counter-ions that a name gives are not always drawn.",
  "data": [
    {"smiles": "Nc1nc(Nc2ccc(C(=O)NCCc3ccc(O)cc3)cc2)sc1C(=O)c1c(F)cccc1F", "note": "[Example A14, 4-[4-Amino-5-(2,6-difluoro-benzoyl)-thiazol-2-ylamino]-N-[2-(4-hydroxy-phenyl)-ethyl]-benzamide]", "values": [
      {"measurement": "Ki", "setting": "[1]", "value": 60, "unit": "nM"},
      {"measurement": "inhibition at 1 µM", "setting": "[2]", "value": 0, "unit": "%"},
      {"measurement": "Ki", "setting": "[3]", "value": 14, "unit": "nM"}
    ]},
    {"smiles": "Nc1nc(Nc2ccc(C(=O)NCCN3CCCCC3)cc2)sc1C(=O)c1c(F)cccc1F", "note": "[Example A15, 4-[4-Amino-5-(2,6-difluoro-benzoyl)-thiazol-2-ylamino]-N-(2-piperidin-1-yl-ethyl)-benzamide]", "values": [
      {"measurement": "Ki", "setting": "[1]", "value": 150, "unit": "nM"},
      {"measurement": "inhibition at 1 µM", "setting": "[2]", "value": 0, "unit": "%"},
      {"measurement": "Ki", "setting": "[3]", "value": 7, "unit": "nM"}
    ]},
    {"smiles": "CC(CN(C)C)NC(=O)c1ccc(Nc2nc(N)c(C(=O)c3c(F)cccc3F)s2)cc1", "note": "(stereo not drawn) [Example A20, 4-[4-Amino-5-(2,6-difluoro-benzoyl)-thiazol-2-ylamino]-N-(2-dimethylamino-1RS-methyl-ethyl)-benzamide Hydrochloride Salt]", "values": [
      {"measurement": "Ki", "setting": "[1]", "value": 162, "unit": "nM"},
      {"measurement": "inhibition at 1 µM", "setting": "[2]", "value": 0, "unit": "%"},
      {"measurement": "Ki", "setting": "[3]", "value": 32, "unit": "nM"}
    ]},
    {"smiles": "Nc1nc(Nc2ccc(C(=O)Nc3ccc(N4CCOCC4)cc3)cc2)sc1C(=O)c1c(F)cccc1F", "note": "[Example A21]", "values": [
      {"measurement": "Ki", "setting": "[1]", "value": 105, "unit": "nM"},
      {"measurement": "inhibition at 1 µM", "setting": "[2]", "value": 0, "unit": "%"},
      {"measurement": "Ki", "setting": "[3]", "value": 105, "unit": "nM"}
    ]},
    {"smiles": "CN1CCC[C@H]1CNC(=O)c1ccc(Nc2nc(N)c(C(=O)c3c(F)cccc3F)s2)cc1", "note": "[Example A31, 4-[4-Amino-5-(2,6-difluoro-benzoyl)-thiazol-2-ylamino]-N-(1-methyl-pyrrolidin-2S-yl-methyl)-benzamide Dihydrochloride]", "values": [
      {"measurement": "Ki", "setting": "[1]", "value": 49, "unit": "nM"},
      {"measurement": "inhibition at 1 µM", "setting": "[2]", "value": 0, "unit": "%"},
      {"measurement": "Ki", "setting": "[3]", "value": 7, "unit": "nM"}
    ]}
  ]
}
